The values below come from ChEMBL document CHEMBL3351465, “Discovery of functionalized bisimidazoles bearing cyclic aliphatic-phenyl motifs as HCV NS5A inhibitors” (Bioorg Med Chem Lett, 2014).

≈ marks a conversion by molar mass, not a printed value.

Data set [1] is described as follows: Inhibition of HCV genotype-1b NS5A. The arrangement: species or system Hepatitis C virus subtype 1b.
Data set [2] in a line: Inhibition of NS5A in HCV genotype-1b infected in human HuH7 cells by luciferase reporter gene assay. The settings on record: Hepatitis C virus, Huh-7. In kind it is cell-based, Hepatitis C virus subtype 1b.
The nature of data set [3]: Inhibition of NS5A in HCV genotype-1a infected in human HuH7 cells by luciferase reporter gene assay. Particulars: Hepatitis C virus, Huh-7. In kind it is cell-based, Hepatitis C virus subtype 1a.
A short description of data set [4]: Inhibition of HCV genotype-1a NS5A. The arrangement: species or system Hepatitis C virus subtype 1a.
The nature of data set [5]: Tmax in Sprague-Dawley rat at 5 mg/kg, po. It counts as ADME, organism-based. On the set-up: dose 5 mg/kg, route oral. The settings on record: in vivo.
The nature of data set [6]: Volume of distribution at steady state in Sprague-Dawley rat at 1 mg/kg, iv. In kind it is ADME, organism-based. On the set-up: dose 1 mg/kg, route intravenous. Particulars: in vivo, read-out: Vdss.
The nature of data set [7]: Cmax in Sprague-Dawley rat at 100 mg/kg, po. It counts as ADME, organism-based. The arrangement: dose 100 mg/kg, route oral. Particulars: in vivo.
A short description of data set [8]: AUClast in cynomolgus monkey at 1 mg/kg, iv. Particulars: plasma. In kind it is ADME, organism-based, Macaca fascicularis. On the set-up: dose 1 mg/kg, route intravenous, time 0 - last.
Data set [9] is described as follows: AUClast in Sprague-Dawley rat at 1 mg/kg, iv. In kind it is ADME, organism-based. On the set-up: time 0 - last, dose 1 mg/kg, route intravenous. The settings on record: plasma.
The nature of data set [10]: Plasma concentration in Sprague-Dawley rat […] at 100 mg/kg, po after 4 hrs. The arrangement: dose 100 mg/kg, route oral. In kind it is ADME, organism-based.
Data set [11] can be described thus: AUClast in Sprague-Dawley rat at 100 mg/kg, po. It counts as ADME, organism-based. On the set-up: time 0 - last, dose 100 mg/kg, route oral. The settings on record: plasma.
Data set [12] in a line: Clearance in Sprague-Dawley rat at 1 mg/kg, iv. It counts as ADME, organism-based. The arrangement: dose 1 mg/kg, route intravenous. Particulars: in vivo.
A short description of data set [13]: Clearance in cynomolgus monkey at 1 mg/kg, iv. In kind it is ADME, organism-based, Macaca fascicularis. On the set-up: dose 1 mg/kg, route intravenous. Particulars: in vivo.
Data set [14] can be described thus: Oral bioavailability in cynomolgus monkey at 5 mg/kg. In kind it is ADME, organism-based, Macaca fascicularis. The settings on record: in vivo.
The nature of data set [15]: Cmax in cynomolgus monkey at 5 mg/kg, po. It counts as ADME, organism-based, Macaca fascicularis. The arrangement: dose 5 mg/kg, route oral. The settings on record: in vivo.
Data set [16] can be described thus: Plasma concentration in Sprague-Dawley rat […] at 5 mg/kg, po after 4 hrs. It counts as ADME, organism-based. On the set-up: dose 5 mg/kg, route oral.
Data set [17] is described as follows: Half life in Sprague-Dawley rat at 1 mg/kg, iv. It counts as ADME, organism-based. The arrangement: dose 1 mg/kg, route intravenous. Particulars: in vivo.
The nature of data set [18]: Cmax in Sprague-Dawley rat at 5 mg/kg, po. It counts as ADME, organism-based. The arrangement: dose 5 mg/kg, route oral. The settings on record: in vivo.
Data set [19] can be described thus: Oral bioavailability in Sprague-Dawley rat at 5 mg/kg. In kind it is ADME, organism-based. The settings on record: in vivo.
Data set [20] in a line: AUClast in Sprague-Dawley rat at 5 mg/kg, po. In kind it is ADME, organism-based. On the set-up: time 0 - last, dose 5 mg/kg, route oral. The settings on record: plasma.
Data set [21] in a line: Volume of distribution at steady state in cynomolgus monkey at 1 mg/kg, iv. Particulars: in vivo, read-out: Vdss. It counts as ADME, organism-based, Macaca fascicularis. The arrangement: dose 1 mg/kg, route intravenous.
Data set [22] can be described thus: Solubility of the compound at pH 7.4 by UV detection method. In kind it is physicochemical. Particulars: buffer.
Data set [23] in a line: Tmax in Sprague-Dawley rat at 100 mg/kg, po. It counts as ADME, organism-based. On the set-up: dose 100 mg/kg, route oral. The settings on record: in vivo.
Data set [24] in a line: Half life in cynomolgus monkey at 1 mg/kg, iv. It counts as ADME, organism-based, Macaca fascicularis. The arrangement: dose 1 mg/kg, route intravenous. Particulars: in vivo.
Data set [25] is described as follows: Tmax in cynomolgus monkey at 5 mg/kg, po. It counts as ADME, organism-based, Macaca fascicularis. The arrangement: dose 5 mg/kg, route oral. The settings on record: in vivo.
Data set [26] in a line: Drug uptake in Sprague-Dawley rat liver at 5 mg/kg, po after 4 hrs. In kind it is ADME, organism-based. The arrangement: dose 5 mg/kg, route oral. The settings on record: read-out: Drug uptake.
A short description of data set [27]: AUClast in cynomolgus monkey at 5 mg/kg, po. In kind it is ADME, organism-based, Macaca fascicularis. The arrangement: time 0 - last, dose 5 mg/kg, route oral. The settings on record: plasma.

As for `COC(=O)N[C@@H](C(=O)N1CCC[C@H]1c1ncc(-c2ccc(-c3ccc(-c4cnc([C@@H]5CCCN5C(=O)[C@H](NC(=O)OC)c5ccccc5)[nH]4)cc3)cc2)[nH]1)c1ccccc1`, the EC50 in [1] was determined as 0.009 nM; in data set [2] it was 0.009 nM; in data set [3], 0.079 nM; in data set [4] it was 0.05 nM.
With `COC(=O)N[C@H](C(=O)N1CCC[C@H]1c1ncc(-c2ccc(C34CCC(c5cnc([C@@H]6CCCN6C(=O)[C@@H](NC(=O)OC)C(C)C)[nH]5)(CC3)CC4)cc2)[nH]1)C(C)C`, the Tmax in data set [5] turned out to be 1.17 h; in data set [23], 2 h; in data set [25], 4 h. The Vd in data set [6] was 1.31 L/kg; in data set [21], 0.64 L/kg. For the same compound, the Cmax in data set [7] worked out at 19100 ng/mL; in data set [15], 1400 ng/mL; in data set [18] it was 980 ng/mL. Further, the AUC(0-t) in [8] came to 2570 ng·h/mL; in [9], 1050 ng·h/mL; in [11], 242000 ng·h/mL; in data set [20] it was 6580 ng·h/mL; in [27], 7930 ng·h/mL. Further, the concentration at 4 h in data set [10] is 15800 ng/mL; in [16], 653 ng/mL; in [26], 2590 ng/mL. For the same compound, the results for the clearance in [12] and in data set [13] were 15.7 mL/min/kg and 6.5 mL/min/kg, respectively. In addition, the EC50 turned out to be 0.06 nM in data set [2] and 1.4 nM in data set [3]. The figures for the bioavailability in data set [14] and in data set [19] were 61.1% and 124%, respectively. The values for the half-life in data set [17] and in [24] were 1.2 h and 1.24 h, respectively. Moreover, the concentration in solution in data set [22] (solubility) was 45 µg/mL (≈ 58.4 µM).
